Reference: PubChem BioAssay (NCI)
“And” between values parts separate entries of the source, which are not always exact repeats. Identical values can stand only once.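 Results reflect a 48-hour exposure of cells in 96-well plates to compound at five concentrations. GI50: concentration for 50% inhibition of growth. TGI marks complete inhibition of growth.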

Assays:
Test in all cases: growth of human tumour cells (NCI), 48 h
T-47D breast = test system: T-47D breast
HS 578T breast = test system: HS 578T breast
DMS 273 small cell lung = test system: DMS 273 small cell lung
HOP-18 NSCLC = test system: HOP-18 NSCLC
M19-MEL melanoma = test system: M19-MEL melanoma
DMS 114 small cell lung = test system: DMS 114 small cell lung
MDA-N = test system: MDA-N
RXF-631 renal = test system: RXF-631 renal

Compound | GI50 (T-47D breast) | TGI (T-47D breast) | GI50 (HS 578T breast) | TGI (HS 578T breast) | TGI (DMS 273 small cell lung) | TGI (M19-MEL melanoma) | TGI (DMS 114 small cell lung) | other results
O=c1c(O)cccc2cc(O)c(O)c(O)c12 | > 100 µM | > 100 µM | 5.42 µM | > 100 µM |  |  |  | 
CCCCCCCCCCCCCCCC[N+](C)(CCO)Cc1cnc[nH]1 (stereo not given) | 2.8 µM | 28.1 µM | 2.85 µM | 35.9 µM |  |  |  | 
CC(=O)[O-].[Mn+3].[O-]c1ccccc1C=NCCN=Cc1ccccc1[O-] |  |  |  |  | > 100 µM | > 100 µM |  | GI50 (DMS 273 small cell lung): > 100 µM; GI50 (HOP-18 NSCLC): > 100 µM; TGI (HOP-18 NSCLC): > 100 µM; GI50 (M19-MEL melanoma): 44.2 µM
O=C(c1ccccc1)c1oc2ccc(Br)cc2c1-c1cnn(-c2ccccc2)c1 |  |  |  |  | > 100 µM | > 100 µM | > 100 µM | 
N#CC(C#N)N=Nc1ccc(Br)cc1 | 0.839 µM | 6.75 µM | 13.4 µM | > 73.8 µM |  |  |  | 
O=C(Nc1ccccc1O)c1ccc(CNc2ccnc(C(F)(F)F)c2)cc1 | 2.5 µM | 24.8 µM | 2.59 µM | 32.9 µM |  |  |  | 
Cc1[nH]c2ccccc2c1-c1cc(-c2cc(-c3c(C)[nH]c4ccccc34)nc(N)n2)nc(N)n1 |  | > 100 µM |  | > 100 µM |  |  |  | TGI (MDA-N): > 100 µM
O=[N+]([O-])/C=C/c1cc2ccccc2[nH]1 |  | 33.9 µM |  | 50 µM |  |  |  | TGI (MDA-N): 12.1 µM
CN(C)CCNC(=O)c1cccc2c(Nc3ccc(S(N)(=O)=O)cc3)c3ccccc3nc12 |  |  |  |  | 3.71 µM |  | 2.3 µM | TGI (HOP-18 NSCLC): 9.2 µM
COc1cc(Nc2ncc(F)c(Nc3ccc4c(n3)NC(=O)C(C)(C)O4)n2)cc(OC)c1OC |  | > 100 µM | 0.218 µM and 0.787 µM |  |  |  |  | 
Cc1nc(-c2ccccc2)cc2c1c(=O)oc1ccccc12 |  |  |  |  | > 100 µM |  | > 100 µM | TGI (HOP-18 NSCLC): > 100 µM; TGI (RXF-631 renal): > 100 µM
CN(CCc1ccccn1)c1nc(=[N+](C)C)ss1 |  |  |  |  | > 100 µM | > 100 µM | > 100 µM | TGI (HOP-18 NSCLC): > 100 µM; TGI (RXF-631 renal): > 100 µM
CC(=O)O[C@H]1CCC2[C@@H]3CCC4=C(O)C(=O)C(C#N)C[C@]4(C)C3CC[C@@]21C (stereo not given in full) |  |  |  |  | > 100 µM | > 100 µM | 81.1 µM | 
O=C(Cc1nc2ccccc2s1)C(=O)Nc1cccc(Cl)c1 |  |  |  |  | > 100 µM | > 100 µM | > 100 µM | TGI (RXF-631 renal): > 100 µM
COC1=CC23CCCN2CCc2cc4c(cc2C3C1O)OCO4 (stereo not given) |  | > 100 µM |  | > 100 µM |  |  |  | 
O=Cc1ccc(-c2ccc(-c3nc4ccccc4o3)cc2)s1 | 22.6 µM | > 100 µM |  |  |  |  |  | 
O=C(/C=N/O)Nc1cc(Cl)c(Cl)cc1Cl |  | 95.5 µM |  | 85.5 µM |  |  |  | TGI (MDA-N): > 100 µM
CCOC(=O)C(=O)Nc1ccc(Cl)cc1C |  |  |  |  | > 100 µM | > 100 µM | > 100 µM | TGI (HOP-18 NSCLC): > 100 µM
CC(C)C1CC2C(=O)N(c3ccccc3)C(=O)C2c2[nH]c3ccccc3c21 (stereo not given) |  |  |  |  | 29.2 µM | > 100 µM | > 100 µM | 

Compound | GI50 (T-47D breast) | TGI (T-47D breast) | GI50 (HS 578T breast) | TGI (HS 578T breast) | TGI (DMS 273 small cell lung) | TGI (M19-MEL melanoma) | TGI (DMS 114 small cell lung) | other results
COc1ccc(Cc2cc3c(cc2OCC(=O)O)OCO3)cc1 |  |  |  |  |  | > 100 µM | > 100 µM | TGI (RXF-631 renal): > 100 µM
CCCCCCCCCc1cc[n+](CC(=O)c2ccc([N+](=O)[O-])cc2)cc1 | 1.63 µM | 3.64 µM | 1.69 µM | 4.51 µM |  |  |  | 
CC1=C(C(=O)NCc2ccccc2)C(c2ccc([N+](=O)[O-])cc2)C(C(=O)NCc2ccccc2)=C(C)N1 |  |  |  |  | > 100 µM | 52.7 µM | > 100 µM | TGI (HOP-18 NSCLC): > 100 µM
CC(C)CC(=O)Nc1n[nH]c2c1CN(C(=O)C1CCN(C)CC1)C2(C)C | 1.59 µM | 9.54 µM | 0.712 µM | > 10 µM |  |  |  | 
O=C1c2ccccc2NC1(c1ccccc1)c1c(-c2ccccc2)[nH]c2ccccc12 (stereo not given) |  |  |  |  | > 100 µM | > 100 µM | > 100 µM | TGI (HOP-18 NSCLC): > 100 µM; TGI (RXF-631 renal): > 100 µM
COc1ccc(NC(=O)CC/C(CC(=O)C(C)(C)C)=N\NC(=O)C(N)=O)cc1 |  |  |  |  |  | > 100 µM | > 100 µM | 
Nc1ccccc1NC(=O)c1ccc(CCCC(=O)Nc2ccc(C3CC3N)cc2)cc1 (stereo not given) | 0.562 µM | > 100 µM | 2.82 µM | > 100 µM |  |  |  | 
COC1=CC(=O)C(OC)=C(OC)C1=O | 10.3 µM | 32.2 µM | 28 µM | > 100 µM |  |  |  | 
CC#C/C(=N\OC[C@H]1COCCN1)c1ccc2ncnc(Nc3ccc(OCc4cccc(F)c4)c(Cl)c3)c2c1 | 0.0582 µM | 4.47 µM | 1.89 µM | 4.46 µM |  |  |  | 
Cc1ccccc1C(=O)Oc1ccc(O)cc1 |  |  |  |  | > 100 µM | > 100 µM |  | TGI (HOP-18 NSCLC): > 100 µM; TGI (RXF-631 renal): > 100 µM
COC(=O)CCC(=O)Nc1cc(Cl)ccc1Cl |  |  |  |  |  | > 100 µM | > 100 µM | TGI (HOP-18 NSCLC): > 100 µM
O=C(O)/C(Cl)=C(\Cl)C(=O)NC1C2CC3CC(C2)CC1C3 (stereo not given) |  |  |  |  | > 100 µM | > 100 µM | > 100 µM | TGI (HOP-18 NSCLC): > 100 µM; TGI (RXF-631 renal): > 100 µM
O=C(O)c1cc2ccccc2oc1=O | > 100 µM and 33.6 µM | > 100 µM |  | > 100 µM |  |  |  | TGI (MDA-N): > 100 µM
OC(COc1ccc(F)cc1)Cn1cnc2c(Cl)ncnc21 (stereo not given) | > 100 µM | > 100 µM | 37.9 µM | > 100 µM |  |  |  | 
CN1CCN(c2ccc(Nc3nc(N)c(C(=O)c4ccc5c(c4)OCCO5)s3)cc2)CC1 | 3.69 µM | 9.7 µM | 2.32 µM | 12.2 µM |  |  |  | 
CCN(CC)c1ccc2c(c1)Oc1nc(N)c(C#N)c(N)c1C2Sc1ccc(OC)cc1 (stereo not given) | 1.91 µM | 4.89 µM | 2.17 µM | 6.11 µM |  |  |  | 
COC(=O)c1c(O)c([N+](=O)[O-])cc2c1c1c(n2Cc2ccccc2)C(=O)c2ccccc2C1=O | 11.8 µM | 45.8 µM | 29.9 µM | 92.4 µM |  |  |  | 
Nc1ncnc2c1c(-c1cccc(OCc3ccccc3)c1)cn2C1CC(CN2CCC2)C1 (stereo not given) | 2.84 µM and 2.79 µM | 12.1 µM and > 10 µM | 2.97 µM and 1.57 µM | 24.8 µM and 5.8 µM |  |  |  | 
Cc1cc(O)c(C2=NN(c3ccc(S(N)(=O)=O)cc3)C(c3ccc(N(C)C)cc3)C2)c(C)c1Cl (stereo not given) | 5.72 µM | 19.7 µM | 23 µM | 62.3 µM |  |  |  | 
